In patent US6605639B1, “Ligands of nuclear receptor” (Nuclear Receptor Research, Ltd., priority 1998, dated 2003):

Assays:
[1] = target: T1, human RXRα (Homo sapiens, UniProt P19793); experiment: RXR reporter gene (luciferase) transfer assay in COS-1 cells; type: cell-based; conditions: for degree of increase in the luciferase activity, RXR vector: control lot = 1
T1 construct: expressed in transfected cells; host or cells: COS-1 cells
T1 sequence (P19793 1-462): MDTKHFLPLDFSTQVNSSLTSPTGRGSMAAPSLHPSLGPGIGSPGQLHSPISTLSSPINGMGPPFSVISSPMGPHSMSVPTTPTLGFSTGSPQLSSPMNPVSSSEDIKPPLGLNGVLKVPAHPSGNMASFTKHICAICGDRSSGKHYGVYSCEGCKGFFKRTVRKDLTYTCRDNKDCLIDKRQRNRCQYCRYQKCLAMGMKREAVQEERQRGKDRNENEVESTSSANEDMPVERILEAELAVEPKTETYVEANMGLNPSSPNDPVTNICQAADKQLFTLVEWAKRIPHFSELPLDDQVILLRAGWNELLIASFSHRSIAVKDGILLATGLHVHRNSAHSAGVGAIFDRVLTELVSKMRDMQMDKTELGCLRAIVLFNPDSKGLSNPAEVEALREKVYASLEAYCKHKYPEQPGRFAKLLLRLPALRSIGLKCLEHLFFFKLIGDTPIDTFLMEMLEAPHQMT
Procedure: A plasmid containing a reporter gene regulated in expression by RXR response element and an RXRα expression plasmid were transferred into COS-1 cells. Then these cells were treated with the compounds of the present invention such as ascochlorin.
Plasmids were transferred into COS-1 cells. Gene transfer was carried out in a conventional manner with the use of Lipofect AMINE reagent (Life Technologies). 1×10^5 cells were dispersed in 2 ml of Dulbecco's modified Eagle medium (DMEM) containing 10% of fetal calf serum and poured into a 35 mm Petri dish. After culturing in a CO2 incubator for 17 hours, the medium was removed and the cells adhering to the Petri dish were washed with phosphate-buffered saline (PBS). Then gene transfer was carried out by using Lipofect AMINE reagent. Namely, 500 ml of a minimum serum medium OptiMEM (Life Technologies) containing […] of a plasmid containing a luciferase gene under the regulation in expression by RXR response element (PRXRL: RXRE-SV40 luciferase; a reporter gene plasmid wherein RXRE has been ligated to SV40 promoter and luciferase cDNA, under the regulation in expression thereby, has been located downstream thereof); […] of an RXRα expression plasmid (pRXRα; a plasmid wherein human RXRα CDNA has been ligated to the downstream of a cytomegalovirus promoter to express human RXRα in mammalian cells); and 2 mg of a β-galactosidase gene plasmid to assess the gene transfer ratio (pCH110; Pharmacia) were pre-mixed with 500 ml of OptiMEM containing 50 ml of Lipofec AMINE, and the resultant mixture was maintained at room temperature for 15 minutes. 100 ml of this liquid mixture was mixed with 400 ml of OptiMEM, and the medium mixture was divided to the Petri dish. After maintaining in a CO2 incubator at 37° C. for 3 hours, the gene transfer medium was sucked off from the Petri dish and DMEM medium containing a test substance and 10% of serum (activated carbon-treated) was added thereto followed by culturing at 37° C. for 20 hours. […] Further, dimethyl sulfoxide (final concentration: 0.1%) was added as the solvent for the test substance.
After sucking off the medium from the Petri dish, […] of a cultured cell lysing solution (25 mM Tris phosphate buffer (pH 7.8), 2 mM 1,2-diaminocyclohexane-N, N,N′,N′-tetraacetate, 10% glycerol, 1% Triton X-100) was added and the cells were peeled off with a rubber policeman and collected. After completely disrupting the cells by freezing and melting, the cells were centrifuged at 4° C. (15,000 rpm, 2 min) and the supernatant thus obtained was employed as a sample for measurement. To 20 ml of the supernatant, 100 ml of a luciferase substrate solution (2.14 mg of Co-A, 100 ml of 470 mM D-Luciferin, 200 ml of 530 mM ATP, 2 ml of DTT-Tricine buffer (pH 7.8)) was added and the fluorescence intensity was measured with a luminometer (ATTO Luminosensor AB-2000). To measure the β-galactosidase for determining the gene transfer efficiency, using a Luminescent β-galactosidase detection kit II (Clontech), fluorescence intensity was measured by a luminometer.

[2] = system: cholesterol-7α hydroxylase; experiment: Formation of 7α-hydroxycholesterol in hepatic microsome of treated rats; type: in vivo, rat; conditions: for 7-α-Hydorxycholesterol / 7-α-Hydorxycholesterol (conversion rate): 7 times, 1% cholesterol feed, average of 5 rats
Procedure: To examine the function mechanism of the compounds of the present invention for promoting bile acid excretion, an experiment was carried out to study the effect on a nuclear receptor LXR. It is assumed that LXR, which is a special nuclear receptor in the liver, might be a cholesterol sensor acting with 22-hydroxycholesterol as a ligand (Bethany A. Janowski at al., Nature 383:728-731, 1996). When cholesterol is accumulated in excess in a respective organ, LXR binds to the ligand, forms a heterodimer with RXR, and then binds to the hormone response element. This binding serves as a signal for promoting the oxidation of cholesterol into bile acid to be excreted from the body, thereby reducing deposited cholesterol. Accordingly, the liver is the organ which accumulates cholesterol in the largest amount and, at the same time, releases cholesterol as bile acid in the largest amount. It is estimated that the ability of the compounds of the present invention to promote the excretion of bile acid into feces would be established as follows. In the liver, RXR and LXR bind to the corresponding ligands, subsequently form a heterodimer with each other, and thus promote the expression of colesterol-7α-hydroxylase which is the rate-limiting enzyme in the biosynthesis pathway of bile acid. That is to say, it is estimated that the compounds of the present invention, ligands of RXR, would promote the transcription of the gene of colesterol-7α-hydroxylase (i.e., the enzyme of the rate state in the bile acid biosynthesis in the liver) and thus enhance the expression of colesterol-7α-hydroxylase. […] Accordingly, it can be concluded that the difference between the effects of clofibrate and the compounds of the present invention on cholesterol metabolism resides in that the former is a ligand of PPARα which is not capable of forming a heterodimer with LXR while the latter enhance the transcription of cholesterol oxidase gene RXR ligand-dependently and thus promote the excretion as bile acid from the body. These findings can be regarded as one major aspect of the present invention.
The experiment was carried out as follows. For each compound, 10 male Sprague Dawley rats weighing about 200 g were divided into 2 groups at random and fed for a week with a powdery rat feed (CE-2; Nippon Crea Co., Ltd.) containing 1% of cholesterol and drinking water ad libitum. The compounds of the present invention were suspended in a 2% acacia solution and orally administered by force once a day 7 times continuously in a dose of 5 mg/kg (Compound-1 and Compound-26) or 20 mg/kg (Compound-6 and Compound-14). In the early morning of the day 8, each animal was killed by blood loss. After refluxing with physiological saline, the liver was taken out immediately. Then 4 times as much 250 mM sucrose solution (containing 75 mM of nicotinamide, 1 mM of EDTA and 0.5 mM of MgCl2) was added to the liver and the mixture was ground with the use of a Teflon homogenizer. Then the liquid ground matter was centrifuged at 9500G for 15 minutes at 4° C. and the mitochondria-free supernatant thus obtained was further centrifuged at 105000G for 60 minutes to thereby separate a microsome fraction. By using the microsome thus separated, the yield of […] was measured in a conventional manner and the conversion rate was calculated.

For `COc1c(Cl)c(C)c(C=O)c(O)c1C/C=C(C)/C=C/[C@@]1(C)[C@H](C)CCC(=O)[C@@H]1C` [Compound-6, 4-O-methylASC], the “fold increase in luciferase reporter activity (control = 1)” value (“fold increase” below) ([1]; 5 × 10^−6 M) was 1.57, the “degree of increase in the luciferase activity, RXR vector” value (from here on “degree of increase”) ([1]; 5 × 10^−6 M) was 55 and the 7-α-Hydorxycholesterol ([2]; 20 mg/kg oral once a day) was 3.61 nM/hr/mg protein. For the same compound, the “7-α-Hydorxycholesterol (conversion rate)” value ([2]; 20 mg/kg oral once a day) was 5.30% and the “enzymatic activity and yield of colesterol-7α-hydroxylase per unit protein weight” value ([2]; ground liver of orally treated rats) was “elevated dose-dependently”.

For “3-[5-[l(R),2(S),6(S)-trimethyl-3-oxocylohexyl]-3-methyl-2,4-pentadienyl]-2,4-dihydroxy-5-chloro-6-methylbenzaldehyde [Compound-1]”, the “fold increase” value ([1]; 10^−6 M) was 2.03, the “degree of increase” value ([1]; 10^−6 M) was 61 and the 7-α-Hydorxycholesterol ([2]; 5 mg/kg oral once a day) was 3.80 nM/hr/mg protein. For the same compound, the “7-α-Hydorxycholesterol (conversion rate)” value ([2]; 5 mg/kg oral once a day) was 5.51%.

In the case of `CC(/C=C/C1(C)C(C)C=CC(=O)C1C)=C\Cc1c(O)c(Cl)c(C)c(C=O)c1O` (centres unmarked) [Compound-26], the “fold increase” value ([1]; 4 × 10^−7 M) is reported as 1.91, the “degree of increase” value ([1]; 4 × 10^−7 M) is reported as 63 and the 7-α-Hydorxycholesterol ([2]; 5 mg/kg oral once a day) is reported as 3.31 nM/hr/mg protein. The “7-α-Hydorxycholesterol (conversion rate)” value ([2]; 5 mg/kg oral once a day) was 4.00%.

With `CC(/C=C/[C@@]1(C)[C@H](C)CCC(=O)[C@@H]1C)=C\Cc1c(O)c(C=O)c(C)c(Cl)c1OCC(=O)O` [Compound-14, 4-O-carboxymethylASC] the “fold increase” value ([1]; 10^−5 M) was 1.23, the “degree of increase” value ([1]; 10^−5 M) was 47 and the 7-α-Hydorxycholesterol ([2]; 20 mg/kg oral once a day) was 4.47 nM/hr/mg protein. For the same compound, the “7-α-Hydorxycholesterol (conversion rate)” value ([2]; 20 mg/kg oral once a day) was 7.06%.
